# Laboratory results: ChEMBL document CHEMBL4043168, “The design and SAR of a novel series of 2-aminopyridine based LRRK2 inhibitors” (Bioorg Med Chem Lett, 2017)
# Assays:
# [1] = biological target: 5'-AMP-activated protein kinase catalytic subunit alpha-2 (Homo sapiens) (UniProt P54646); test: Inhibition of AMPKa2 labeling at conserved Lys1 (VAVKILNR) in human PBMC at 1 uM
# [2] = biological target: 5'-AMP-activated protein kinase catalytic subunit alpha-1 (Homo sapiens) (UniProt Q13131); test: Inhibition of AMPKa1 labeling at conserved Lys2 (DLKPENVLLDAHMNAK) in human PBMC at 1 uM
# 5'-AMP-activated protein kinase catalytic subunit alpha-1 (Homo sapiens), sequence (Q13131 whole entry, looked up): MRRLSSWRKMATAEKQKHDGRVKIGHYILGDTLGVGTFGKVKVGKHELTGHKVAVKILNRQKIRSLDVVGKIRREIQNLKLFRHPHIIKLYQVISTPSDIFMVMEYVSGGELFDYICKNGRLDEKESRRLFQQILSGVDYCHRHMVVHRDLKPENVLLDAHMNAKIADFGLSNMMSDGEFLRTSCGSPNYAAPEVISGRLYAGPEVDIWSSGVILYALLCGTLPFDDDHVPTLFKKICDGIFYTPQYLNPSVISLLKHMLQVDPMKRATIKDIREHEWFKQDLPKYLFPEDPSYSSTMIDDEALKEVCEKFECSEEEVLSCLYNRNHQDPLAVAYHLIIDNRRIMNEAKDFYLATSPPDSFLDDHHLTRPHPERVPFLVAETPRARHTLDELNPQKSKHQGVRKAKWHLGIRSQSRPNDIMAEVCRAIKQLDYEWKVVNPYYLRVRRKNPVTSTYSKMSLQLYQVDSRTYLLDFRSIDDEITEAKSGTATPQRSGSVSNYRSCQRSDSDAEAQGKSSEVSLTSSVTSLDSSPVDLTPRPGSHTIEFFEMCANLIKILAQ
# [3] = biological target: Tyrosine-protein kinase HCK (Homo sapiens) (UniProt P08631); test: Inhibition of HCK activation Loop (EGAKFPIKWTAPEAINFGSFTIK) in human PBMC at 1 uM
# Tyrosine-protein kinase HCK (Homo sapiens), sequence (P08631 2-526 limits assumed): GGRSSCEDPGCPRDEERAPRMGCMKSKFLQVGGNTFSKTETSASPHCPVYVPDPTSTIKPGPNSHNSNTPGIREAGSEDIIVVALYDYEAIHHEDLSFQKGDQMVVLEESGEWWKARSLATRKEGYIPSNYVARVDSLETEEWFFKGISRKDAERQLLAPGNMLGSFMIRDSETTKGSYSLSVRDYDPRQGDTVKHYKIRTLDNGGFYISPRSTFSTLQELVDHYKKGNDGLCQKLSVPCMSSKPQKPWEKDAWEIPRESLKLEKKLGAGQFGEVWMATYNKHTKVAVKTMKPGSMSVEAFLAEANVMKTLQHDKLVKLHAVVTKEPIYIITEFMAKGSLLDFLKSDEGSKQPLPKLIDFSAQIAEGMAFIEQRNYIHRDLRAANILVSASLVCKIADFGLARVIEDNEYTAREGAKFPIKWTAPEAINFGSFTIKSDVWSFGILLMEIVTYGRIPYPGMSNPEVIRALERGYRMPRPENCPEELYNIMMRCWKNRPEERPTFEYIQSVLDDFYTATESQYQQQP
# [4] = biological target: T1, Serine/threonine-protein kinase LATS1 (Homo sapiens) (UniProt O95835); test: Inhibition of LATS1 conserved Lys1 (ALYATKTLR) in human PBMC at 1 uM
# T1 sequence (whole entry): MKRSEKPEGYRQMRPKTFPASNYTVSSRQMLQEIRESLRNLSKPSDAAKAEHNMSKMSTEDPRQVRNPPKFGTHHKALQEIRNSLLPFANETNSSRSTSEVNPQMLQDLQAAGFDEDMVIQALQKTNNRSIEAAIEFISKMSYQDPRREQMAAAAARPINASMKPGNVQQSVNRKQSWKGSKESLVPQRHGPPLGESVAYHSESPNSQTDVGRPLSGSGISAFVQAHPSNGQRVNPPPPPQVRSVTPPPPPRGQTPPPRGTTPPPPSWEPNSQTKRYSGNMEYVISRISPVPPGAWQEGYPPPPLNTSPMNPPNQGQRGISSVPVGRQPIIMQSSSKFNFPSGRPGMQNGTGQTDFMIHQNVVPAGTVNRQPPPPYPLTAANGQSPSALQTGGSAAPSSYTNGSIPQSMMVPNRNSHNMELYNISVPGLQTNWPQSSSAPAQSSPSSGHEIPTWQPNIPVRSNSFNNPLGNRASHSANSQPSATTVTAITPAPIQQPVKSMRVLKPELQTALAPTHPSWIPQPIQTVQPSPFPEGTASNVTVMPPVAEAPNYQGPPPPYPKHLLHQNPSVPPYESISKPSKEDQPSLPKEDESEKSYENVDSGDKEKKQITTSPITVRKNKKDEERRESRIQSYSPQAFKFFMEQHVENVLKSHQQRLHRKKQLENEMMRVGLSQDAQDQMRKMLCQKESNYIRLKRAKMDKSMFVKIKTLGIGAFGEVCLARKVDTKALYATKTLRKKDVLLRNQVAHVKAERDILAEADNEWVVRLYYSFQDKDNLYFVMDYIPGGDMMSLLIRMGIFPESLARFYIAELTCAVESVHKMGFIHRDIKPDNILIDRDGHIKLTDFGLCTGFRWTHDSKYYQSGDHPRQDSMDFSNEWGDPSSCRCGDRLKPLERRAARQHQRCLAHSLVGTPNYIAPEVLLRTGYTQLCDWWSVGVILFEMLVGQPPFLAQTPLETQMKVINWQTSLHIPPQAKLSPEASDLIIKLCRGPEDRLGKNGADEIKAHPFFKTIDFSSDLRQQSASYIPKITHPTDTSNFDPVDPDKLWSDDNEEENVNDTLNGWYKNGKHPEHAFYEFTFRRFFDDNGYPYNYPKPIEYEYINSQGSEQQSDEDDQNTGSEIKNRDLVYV
# [5] = biological target: 1-phosphatidylinositol 3-phosphate 5-kinase (Homo sapiens) (UniProt Q9Y2I7); test: Inhibition of PIP5K3 ATP binding site (GGKSGAAFYATEDDRFILK) in human PBMC at 1 uM
# 1-phosphatidylinositol 3-phosphate 5-kinase (Homo sapiens), sequence (Q9Y2I7 whole entry): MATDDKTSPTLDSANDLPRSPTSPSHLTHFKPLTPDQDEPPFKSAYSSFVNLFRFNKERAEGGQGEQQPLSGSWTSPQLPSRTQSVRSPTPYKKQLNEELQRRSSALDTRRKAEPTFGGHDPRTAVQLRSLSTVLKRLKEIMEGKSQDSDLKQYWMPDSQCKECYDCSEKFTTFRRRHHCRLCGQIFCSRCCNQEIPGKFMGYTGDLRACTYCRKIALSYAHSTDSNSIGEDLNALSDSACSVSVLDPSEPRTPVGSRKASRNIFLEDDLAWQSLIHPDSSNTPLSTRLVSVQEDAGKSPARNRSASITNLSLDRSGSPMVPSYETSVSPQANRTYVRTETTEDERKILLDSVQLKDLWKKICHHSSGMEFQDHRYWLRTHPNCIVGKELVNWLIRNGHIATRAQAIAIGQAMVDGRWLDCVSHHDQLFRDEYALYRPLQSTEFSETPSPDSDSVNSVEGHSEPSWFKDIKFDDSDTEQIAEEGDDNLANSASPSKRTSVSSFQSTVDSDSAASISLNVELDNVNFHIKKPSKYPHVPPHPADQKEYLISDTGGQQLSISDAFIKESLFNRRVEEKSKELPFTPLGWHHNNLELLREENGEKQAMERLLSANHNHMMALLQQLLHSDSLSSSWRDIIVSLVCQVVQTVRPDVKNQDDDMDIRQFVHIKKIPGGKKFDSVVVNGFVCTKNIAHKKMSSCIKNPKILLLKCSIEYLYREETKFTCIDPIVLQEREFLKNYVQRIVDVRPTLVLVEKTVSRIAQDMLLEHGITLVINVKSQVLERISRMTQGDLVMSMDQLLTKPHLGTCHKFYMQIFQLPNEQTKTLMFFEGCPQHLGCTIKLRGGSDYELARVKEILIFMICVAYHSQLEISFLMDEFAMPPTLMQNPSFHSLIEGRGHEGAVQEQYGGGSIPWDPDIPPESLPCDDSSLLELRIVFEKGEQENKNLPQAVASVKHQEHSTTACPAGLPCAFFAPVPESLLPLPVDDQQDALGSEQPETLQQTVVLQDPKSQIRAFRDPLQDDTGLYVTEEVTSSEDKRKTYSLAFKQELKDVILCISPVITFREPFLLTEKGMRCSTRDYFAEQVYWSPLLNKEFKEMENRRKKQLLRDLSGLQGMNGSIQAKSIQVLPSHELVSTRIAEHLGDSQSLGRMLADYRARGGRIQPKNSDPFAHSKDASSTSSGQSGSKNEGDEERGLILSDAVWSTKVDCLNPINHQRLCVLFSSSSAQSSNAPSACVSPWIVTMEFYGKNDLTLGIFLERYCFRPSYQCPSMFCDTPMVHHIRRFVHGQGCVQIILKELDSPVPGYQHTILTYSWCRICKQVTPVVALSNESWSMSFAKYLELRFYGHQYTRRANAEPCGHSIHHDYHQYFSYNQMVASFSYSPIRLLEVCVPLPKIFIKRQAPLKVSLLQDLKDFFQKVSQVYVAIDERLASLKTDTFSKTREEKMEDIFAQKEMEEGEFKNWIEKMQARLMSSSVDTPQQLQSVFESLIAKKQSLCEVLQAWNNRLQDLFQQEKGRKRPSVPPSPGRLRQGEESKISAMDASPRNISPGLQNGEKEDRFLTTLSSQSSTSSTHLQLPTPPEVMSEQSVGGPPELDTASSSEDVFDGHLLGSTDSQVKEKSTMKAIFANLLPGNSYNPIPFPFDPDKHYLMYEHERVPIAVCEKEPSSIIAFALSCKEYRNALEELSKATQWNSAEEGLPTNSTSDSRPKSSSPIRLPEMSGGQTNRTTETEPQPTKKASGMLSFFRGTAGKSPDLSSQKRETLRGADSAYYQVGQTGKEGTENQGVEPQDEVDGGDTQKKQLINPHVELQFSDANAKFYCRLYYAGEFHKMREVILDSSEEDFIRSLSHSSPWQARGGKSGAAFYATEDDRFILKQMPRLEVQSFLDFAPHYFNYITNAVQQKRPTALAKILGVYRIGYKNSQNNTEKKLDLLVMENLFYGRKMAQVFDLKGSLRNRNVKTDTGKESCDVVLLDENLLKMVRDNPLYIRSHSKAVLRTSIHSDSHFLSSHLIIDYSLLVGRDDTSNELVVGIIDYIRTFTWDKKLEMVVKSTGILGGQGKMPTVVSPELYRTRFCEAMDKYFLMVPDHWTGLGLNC
# [6] = biological target: Calcium/calmodulin-dependent protein kinase type II subunit alpha (Homo sapiens) (UniProt Q9UQM7); test: Inhibition of CaMK2a labeling at conserved Lys2 (DLKPENLLLASK) in human PBMC at 0.1 uM
# Calcium/calmodulin-dependent protein kinase type II subunit alpha (Homo sapiens), sequence (Q9UQM7 whole entry): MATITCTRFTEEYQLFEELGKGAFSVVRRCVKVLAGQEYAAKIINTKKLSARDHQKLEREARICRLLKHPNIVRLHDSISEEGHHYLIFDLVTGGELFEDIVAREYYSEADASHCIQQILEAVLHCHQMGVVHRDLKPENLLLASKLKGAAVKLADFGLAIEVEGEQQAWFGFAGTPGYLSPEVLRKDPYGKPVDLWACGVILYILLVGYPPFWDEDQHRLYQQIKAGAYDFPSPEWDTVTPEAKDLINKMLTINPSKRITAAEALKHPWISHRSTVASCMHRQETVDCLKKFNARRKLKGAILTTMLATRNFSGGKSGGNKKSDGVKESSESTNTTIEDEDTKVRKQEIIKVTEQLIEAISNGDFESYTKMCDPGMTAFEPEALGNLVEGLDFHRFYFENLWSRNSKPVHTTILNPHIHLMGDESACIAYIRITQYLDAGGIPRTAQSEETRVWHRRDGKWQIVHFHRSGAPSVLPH
# [7] = biological target: Tyrosine-protein kinase Yes (Homo sapiens) (UniProt P07947); test: Inhibition of YES activation Loop (QGAKFPIKWTAPEAALYGR) in human PBMC at 0.1 uM
# Tyrosine-protein kinase Yes (Homo sapiens), sequence (P07947 2-543 limits assumed): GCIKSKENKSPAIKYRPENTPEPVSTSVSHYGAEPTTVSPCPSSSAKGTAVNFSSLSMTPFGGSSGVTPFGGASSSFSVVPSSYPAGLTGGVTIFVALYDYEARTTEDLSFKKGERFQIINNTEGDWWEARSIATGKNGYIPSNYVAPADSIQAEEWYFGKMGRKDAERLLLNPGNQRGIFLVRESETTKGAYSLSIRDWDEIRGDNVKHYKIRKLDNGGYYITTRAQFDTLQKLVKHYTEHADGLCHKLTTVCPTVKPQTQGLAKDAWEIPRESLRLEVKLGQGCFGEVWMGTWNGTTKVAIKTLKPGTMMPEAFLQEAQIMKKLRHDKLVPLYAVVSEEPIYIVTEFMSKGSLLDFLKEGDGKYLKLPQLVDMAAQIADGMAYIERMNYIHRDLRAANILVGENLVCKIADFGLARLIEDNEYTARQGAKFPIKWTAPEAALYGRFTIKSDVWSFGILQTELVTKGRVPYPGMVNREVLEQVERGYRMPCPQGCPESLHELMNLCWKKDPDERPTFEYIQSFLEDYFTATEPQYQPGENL
# [8] = biological target: MAP/microtubule affinity-regulating kinase 4 (Homo sapiens) (UniProt Q96L34); test: Inhibition of MARK4 conserved Lys1 (EVAIKIIDK) in human PBMC at 0.1 uM
# [9] = biological target: T2, Serine/threonine-protein kinase 3 (Homo sapiens) (UniProt Q13188); test: Inhibition of MST2 conserved Lys1 (ESGQVVAIKQVPVESDLQEIIK) in human PBMC at 0.1 uM
# T2 sequence (whole entry): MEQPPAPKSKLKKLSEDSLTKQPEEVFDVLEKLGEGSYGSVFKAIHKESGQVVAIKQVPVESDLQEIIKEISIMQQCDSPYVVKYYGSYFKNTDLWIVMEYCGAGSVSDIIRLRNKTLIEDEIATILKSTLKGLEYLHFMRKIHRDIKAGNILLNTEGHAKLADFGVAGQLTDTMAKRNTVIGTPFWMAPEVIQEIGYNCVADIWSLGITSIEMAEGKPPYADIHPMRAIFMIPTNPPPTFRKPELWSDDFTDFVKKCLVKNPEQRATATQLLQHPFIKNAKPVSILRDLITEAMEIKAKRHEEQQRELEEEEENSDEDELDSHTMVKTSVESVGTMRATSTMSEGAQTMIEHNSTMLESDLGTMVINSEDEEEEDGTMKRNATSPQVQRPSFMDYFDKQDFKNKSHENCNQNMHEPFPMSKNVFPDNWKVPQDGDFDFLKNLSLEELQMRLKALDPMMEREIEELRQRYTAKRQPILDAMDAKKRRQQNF
# 5'-AMP-activated protein kinase catalytic subunit alpha-2 (Homo sapiens), sequence (P54646 whole entry, looked up): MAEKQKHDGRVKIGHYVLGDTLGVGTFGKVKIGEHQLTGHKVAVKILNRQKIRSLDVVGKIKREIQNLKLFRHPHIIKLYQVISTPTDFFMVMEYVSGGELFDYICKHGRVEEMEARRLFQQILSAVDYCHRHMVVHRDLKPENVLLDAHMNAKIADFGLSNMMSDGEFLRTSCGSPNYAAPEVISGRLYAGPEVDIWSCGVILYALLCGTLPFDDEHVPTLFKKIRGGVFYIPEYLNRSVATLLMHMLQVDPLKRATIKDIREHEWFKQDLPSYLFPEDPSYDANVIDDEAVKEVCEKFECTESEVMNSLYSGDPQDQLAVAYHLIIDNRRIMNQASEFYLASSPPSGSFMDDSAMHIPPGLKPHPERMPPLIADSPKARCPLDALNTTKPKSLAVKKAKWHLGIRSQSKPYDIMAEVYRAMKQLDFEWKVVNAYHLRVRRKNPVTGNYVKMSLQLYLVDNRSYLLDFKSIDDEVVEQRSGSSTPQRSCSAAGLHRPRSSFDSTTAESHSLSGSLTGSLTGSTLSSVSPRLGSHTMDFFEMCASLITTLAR
compound,measurement,setting,value
CC(C)n1cc(-c2cc(-c3ccc(CN4CCOCC4)cc3)cnc2N)nn1,inhibition,[1],17.3%
same,inhibition,[2],17.5%
same,inhibition,[3],-2.2%
same,inhibition,[4],30.1%
same,inhibition,[5],-9.2%
same,inhibition,[6],-7.5%
same,inhibition,[7],-4.4%
same,inhibition,[8],-6.7%
same,inhibition,[9],7.7%
